1 compound from patent publication US20160367515A1, “Improved delivery of poorly water soluble drugs with aphafetoprotein stabilized with metal ions” (Oy Safemed Ltd., priority 2013, published 2016) can be followed below.

As usually defined, the IC50 is the concentration needed to halve the response being measured.

Data set [1] relates to mammary carcinoma cell line MCF-7. As to the kind of experiment: MTS cell viability assay, mammary carcinoma MCF-7 cells. It counts as cell-based, human. On the procedure: Effect of binding of Zn ions to rhAFP and sugar-free rhAFPo species was tested by measuring of their dose-dependent tumor-suppressive effect for mammary carcinoma cell line MCF-7 in vitro, as it was earlier described for natural embryonic eAFP (Dudich et al., Eur. J. Biochem. 1999; 266: 750-761). MCF-7 cells were incubated with various doses of rhAFP (rhAFPo), Zn-rhAFP (Zn-rhAFPo) or with natural embryonic eAFP for 48 h, and thereafter their viability was assessed by the colorimetric MTS assay (FIG. 1A).
Cell viability was assessed by the Promega CellTiter 96 AQueous Non-Radioactive Cell Proliferation MTS assay (Promega, USA) according to manufacturer's instructions. Cells were incubated with various AFP samples for 48 h as described above, followed by incubation with MTS-test reagents and measuring of the light adsorption of the formasan, appeared in the lysed cell supernatants at 492 nm by using VICTOR-1420 multilabel counter (Wallac, Finland). Intact cell cultures incubated without additions were taken as a control. By such a way the quantity of viable cells capable to internalize MTS dye was determined. Results were expressed as the mean optical density (OD)±the standard error of the mean triplicate cultures. The extent of cell viability was calculated as an average OD in experimental wells after addition of testing compounds in relation to untreated control wells, that was taken as 100%
To evaluate the efficacy of preparations rhAFP/Ptx and Zn-rhAFP/Ptx we compared the cytotoxic effect of Ptx alone or that in combination with rhAFP or Zn-rhAFP for taxol-resistant human hepatoma HepG2 cells, human breast carcinoma cells MCF-7, and rat glioma C6 cell lines in vitro. RhAFP or Zn-rhAFP were incubated with various doses of Ptx at 37° C. for 1 h to allow complex formation with molecular ratios rhAFP:Ptx 1:1; 1:3 or 1:5 and thereafter the mixtures were introduced into the cell culture for 48 hrs. Cytotoxicity was measured by MTS assay.
Various doses of rhAFP/Ptx complexes were tested for their effectiveness for inhibition of human mammary carcinoma MCF-7, human hepatoma HepG2, and rat glioma C6 tumor cell growth in vitro. First, we optimized drug concentration and rhAFP amount to the extent that it would not generate an extensive cytotoxic effect alone. Then, the cells were seeded in 96-well plates at a density of 3×10^3/well in 100 μl of medium for 24 hrs to allow adherence. The next day, rhAFP or Zn-rhAFP combined with Ptx at the molecular ratios of 1:1; 1:3 or 1:5 were added into the each well. After 48 h of incubation MTS assays were performed to determine survival rate of the cells. All the experiments were repeated at least three times. The results were expressed as mean±standard error (SE).
The coefficient of drug interaction (CDI) was calculated to analyze the effects of rhAFP and Ptx combinations. CDI was calculated by the equation: CDI=SRAFP/drug[…]/SRAFP×SRdrug, where SRAFP/drug is the average survival rate of combination group, and SRAFP or SRdrug are the average survival rates of the single agent groups. According to our evaluation, CDI values <1, =1 or >1 indicate that the combinations are synergistic, additive or antagonistic respectively.
The values of Zn-rhAFP/Ptx or rhAFP/Ptx complex concentration, which inhibited the cell viability by 50% (IC50) when compared to untreated control, were calculated according to the Hill's equation (sigmoid model of concentration-response curve) from the curves of dependence of the relative percentage of viable cells from AFP concentration expressed as mean values from three independent experiments±SD.
In order to confirm the hypothesis that the combination of Zn-rhAFP and various low water-soluble chemotherapeutic agents would reveal increased anti-tumor efficacy, different cytotoxic compounds were tested in combination with Zn-rhAFP for their cell-killing effect in MCF-7 cells in vitro. […]
A general note: Tetrazolium assays rely on reduction of a dye to a coloured formazan, in cell work by metabolically active cells.

The test system of data set [2] is breast cancer cells MCF-7. As to the kind of experiment: Microscopic evaluation (DAPI, cell count by ImageJ) of viability and apoptosis of MCF-7 cells. Format: cell-based, human. To be noted: MCF-7, 48 h. On the procedure: Concentrations of the compounds were: rhAFP: 3.0 μM, Ptx: 10 μM. Incubation time was 48 h. Patterns on the top (A): magnification ×100; bottom (B): magnification ×400. Cell nuclei were stained with DAPI and visualized with a fluorescent microscope Axioplan, Zeiss equipped with corresponding color filter kits. Apoptotic nuclei at s panel B are shown by arrows. […] Total number of cells in the control wells was taken as 100%. The average data for five wells±mean square deviation are shown.
rhAFP/Ptx equimolar complex was also tested for its growth suppressive activity against tumor cells in vitro. […] Apoptotic cells with condensed chromatin due to rhAFP/Ptx treatments are shown at FIG. 3B with arrows.
MCF-7 cells were seeded onto the microscopic plates Lab-Tek™ Chamber Slides (Thermo Fisher Scientific-Nunc, Germany) for 48 h to reach of 80% confluence and thereafter were subjected to 48-h treatments with Ptx dissolved in DMSO (10 nM), Zn-rhAFP (1.4 μM), or their combination Zn-rhAFP/Ptx (1.4 μM/10 nM). Similarly, the tests had been performed with non-glycosylated rhAFPo species. Thereafter the cells were fixed with 100% ice-cold acetone and stained with DAPI (Molecular probes, USA). Control cells were incubated without additions. […] The quantity of the cells in the various experimental wells in the selected fields of view was assessed by using ImageJ software. […]

The test system of data set [3] is normal CBA mice splenocytes. Nature of the data set: Unspecific toxicity against normal splenocytes, trypan blue staining. Particulars: 48 h, standalone.
Protocol: Zn-rhAFP was prepared in a molecular ratio Zn:rhAFP=4:1. Viable cells were visualized by trypan blue staining. The data are expressed as percentage of viable cells in experimental cell cultures relative to untreated control. Mean of three independent experiments is shown.
Viable cells were visualized by trypan blue staining.

As for `CC(=O)O[C@H]1C(=O)[C@@]2(C)[C@H]([C@H](OC(=O)c3ccccc3)[C@]3(O)C[C@H](OC(=O)[C@H](O)[C@@H](NC(=O)c4ccccc4)c4ccccc4)C(C)=C1C3(C)C)[C@]1(OC(C)=O)CO[C@@H]1C[C@@H]2O` [Ptx, paclitaxel], the IC50 in data set [1] (Homo sapiens, MCF7, MCF-7, 48 h, compositions of paclitaxel with rhAFP or Zn-rhAFP, mean of three experiments, read-out: IC50) is over 10 µM. The “Coefficient for drug interaction (CDI)” value in data set [1] (MCF7 + Zn-rhAFP 1.4 μM (Zn:rhAFP 4:1) + drug, 48 h) stood at 0.80. Further, the viable cell count in data set [2] (FIG. 3: rhAFP 3.0 μM, Ptx 10 μM) is listed as 54 % of control. Besides, the cell death in data set [2] (Ptx 10 nM, Zn-rhAFP 1.4 μM) was 55%. The “cytotoxic effect against normal splenocytes” value in data set [3] is reported as “strong dose-dependent growth suppression”.
